Test results published in patent US12534501B2, “Targeting deregulated Wnt signaling in cancer using stabilized alpha-helices of BCL-9” (Dana-Farber Cancer Institute, Inc., priority 2011, dated 2026).
Numbered stars: 1 amine (or outer) side, 2 acyl side, 3 side chain; on linkers, the order of the positions; unused ones are H or OH. Bridge positions count the residues as written; N and C are the ends. Square brackets hold non-standard residues; d marks the D form. Peptide text beside a SMILES is read from it. ξ: configuration not given here. ξαMeNle(6-ylidene) = CC(CCCC=[*:3])(N[*:1])C(=O)[*:2]; Nle = CCCC[C@H](N)C(=O)O

Key:
[1] = test system: Wnt-dependent reporter activity (TOP-FLASH) in Colo320 cells; assay: Wnt-specific TCF reporter gene assay (TOP-FLASH dual luciferase); assay type: cell-based; details: Colo320, normalized to Renilla
Method: Luciferase activity was measured using the Dual Luciferase Reporter Assay System (Promega) as previously described (Sukhdeo, K. et al. Proc Natl Acad Sci USA 104, 7516-21 (2007)). To measure Wnt or NFκB reporter activity, Colo320 cells were transfected with TOP-FLASH, FOP-FLASH plasmid (Millipore Corporation) or NFκB luciferase reporter (Stratagene), along with an internal Renilla control plasmid (hRL-null). Transfection was accomplished using FuGENE (Roche) according to the manufacturer's protocol. The results were normalized to control Renilla activity. The reported data represent the average of three independent transfection experiments performed in triplicate. See results in FIG. 9, FIG. 10.

Colo320 cells = assay: Cellular invasion assay, Matrigel Boyden chambers; assay type: cell-based; details: 5 μM
Method: Angiogenesis was evaluated as previously described (Mani, M. et al. Cancer Res 69, 7577-86 (2009)) using an in vitro angiogenesis assay kit (Millipore). For capillary tube formation analysis, HUVEC were cultured on polymerized matrix gel and exposed to supernatant media collected from Colo320 or MM1S cells treated with vehicle (0.5% DMSO), SAH-BCL9B peptides (5 μM) for 24 h. The number of capillary tubes formed after 5 h treatment at 37° C. was determined by counting 5 randomly selected fields at 40× magnification, according to manufacture's instructions. HUVEC cultured in VEGF media and VEGF-free media were used as positive and negative controls, respectively. Cellular invasion assays were performed using Matrigel Boyden chambers (BD Biosciences) as described (Mani, M. et al. Cancer Res 69, 7577-86 (2009)). The reported data represent the average of three independent experiments performed in triplicate. See results in FIG. 3H-FIG. 3I.

[2] = test system: GFP-positive INA-6 cells in human bone chips of SCID-hu mice; assay: SCID-hu murine model of human MM; assay type: in vivo; details: for shuIL-6R serum levels: 5 mg/kg local injection every other day; for tumor cell invasion outside the bone chip: histologic analysis
Method: In a second in vivo model, the impact of SAH-BCL9B treatment on the growth of INA-6 MM cells within a human bone graft implanted in the flank of SCID-hu mice was examined (Tassone, P. et al. Blood 106, 713-6 (2005)). GFP-labeled INA-6 cells (5×10^6), which express both BCL9 and β-catenin and are suppressed by SAH-BCL9B in vitro were injected into bone grafts four weeks after implantation. Two days later, cohorts of mice (n=5) were treated by local injection with vehicle (2.5% DMSO in D5W), SAH-BCL9B, or SAH-BCL9B(R359E) peptides (5 mg/kg) for a total of 10 doses administered every other day. To monitor tumor burden, the serum level of soluble human interleukin-6 receptor (shuIL-6R) was measured, which is first detectable 3-4 weeks after INA-6 tumor engraftment. […] Mice were sacrificed 33 days after INA-6 cell injection and evaluated for MM tumor burden by fluorescence imaging, histologic analysis, and anti-CD34 staining. […] Similar to the CRC model, local angiogenesis was suppressed in SAH-BCL9B-treated SCID-hu mice, as monitored by anti-CD34 staining and blood vessel quantitation (FIG. 4I).
For the SCID-hu murine model of human MM, human fetal bone grafts measuring 1.5×0.5 cm were subcutaneously implanted into eight week old male CB-17 SCID mice (Taconic) as previously described (Tassone, P. et al. Blood 106, 713-6 (2005)). Four weeks after bone implantation, 5×10^6 GFP-positive INA-6 MM cells were injected directly into each bone implant. Two days later, mice were treated with 100 μl injections of vehicle (2.5% DMSO in D5W) or SAH-BCL9 peptides (5 mg/kg) instilled adjacent to the bone chips on alternate days for a total of 10 doses. Mouse sera were serially monitored for shuIL-6R levels by ELISA (R&D Systems). Thirty-three days after tumor cell injection, the mice were sacrificed and analyzed for tumor burden by fluorescence imaging and histologic analysis of the bone grafts. See results in FIG. 4A-FIG. 4I. In addition, TUNEL staining was performed on samples obtained from the mice. […] See results in FIG. 22 and FIG. 23. All animal experiments were performed in accordance with approved protocols of the Dana-Farber Cancer Institute Animal Care and Use Committee.

Compound	reduction of Wnt-specific TCF reporter activity [1]	migration through Matrigel Boyden chambers (Colo320 cells)	shuIL-6R serum levels ([2]; 10 doses)	local angiogenesis (anti-CD34 staining, blood vessel quantitation) ([2]; 5 mg/kg local, 10 doses)	tumor burden within the bone chip ([2]; 5 mg/kg local, 10 doses, day 33)	TUNEL positivity in myeloma tumor tissue ([2]; bone chips bearing INA-6 cells)	tumor cell invasion outside the bone chip ([2]; day 33)
CCCC[C@H](NC(=O)[C@H](CCCNC(=N)N)NC(=O)[C@H](CCC(N)=O)NC(=O)[C@@H](NC(=O)C1(C)CCCC=CCCCC(C)(NC(=O)[C@H](CC(C)C)NC(=O)[C@H](CO)NC(=O)[C@H](CCCNC(=N)N)NC(=O)[C@H](CCC(=O)O)NC(=O)[C@H](CCCNC(=N)N)NC(=O)[C@H](Cc2c[nH]cn2)NC(=O)[C@H](CCC(=O)O)NC(=O)[C@H](CC(C)C)NC(=O)[C@H](CCC(N)=O)NC(=O)[C@H](CCC(=O)O)NC(=O)[C@H](CCC(N)=O)NC(=O)[C@H](CO)NC(=O)[C@H](CC(C)C)NC(C)=O)C(=O)N[C@@H]([C@@H](C)O)C(=O)N[C@@H](CC(C)C)C(=O)N[C@@H](CCCNC(=N)N)C(=O)N1)[C@@H](C)CC)C(=O)N[C@@H](CC(C)C)C(=O)N[C@@H](Cc1ccccc1)C(N)=O (some centres unmarked) [SAH-BCL9B] (Ac-LSQEQLEHRERSL[ξαMeNle(6-ylidene)]TLR[ξαMeNle(6-ylidene)]IQR[Nle]LF-NH2; staple 14-18)	~50%	blocked the migration	low to undetectable levels	suppressed	significantly reduced	notably increased TUNEL positivity	resided within the confines of the bone chip
SAH-BCL9B(R359E): SEQ ID NO: 7: LSQEQLEHEERSLXTLRXIQRBLF; reverse polarity point mutant, negative control of SAH-BCL9B	no effect	no effect	progressive increase in shuIL-6R levels				invasion into the surrounding soft tissue
